Test results reported in patent publication US20050020542A1, “Method of modulating sodium ion absorption in epithelial cells” (priority 2001, published 2005).
“Also recorded” adds a separate entry of the source.

Key:
CFHNE monolayers = assay: Monolayer resistance / tight junction integrity in Ussing chambers (toxicity); type: cell-based, human
Experimental: 3. In addition, delayed toxic effects could result in long-term damage of the monolayers that would not become apparent for several hours. Therefore, it is of interest to note whether the resistance or conductance was affected during this period. A reduction in resistance in monolayers treated with compound could indicate weakened tight junctions.
[…] […] As a control, the effect of pretreatment with phosphate-propionoxymethyl ester (26.6 μM) was tested using the same protocol.

[1] = system: calcium-activated Cl- channel; assay: Perforated patch whole cell recording of Cl- current; type: cell-based, human
Experimental: In FIGS. 4A and 4B, the response to 10 μM INO-E2 is contrasted with the response to ATP.

human CF nasal epithelia = assay: Blue Dextran volume transport assay (fluid absorption); type: cell-based
From the text: In normal human airway epithelia, Na^+ and Cl^− currents (CFTR and Ca^2+-activated Cl^− currents) contribute to airway surface liquid (ASL) fluid volume regulation depending on signaling equilibria. In contrast, in human CF airway epithelia, Na^+ currents through ENaC dominate basal ASL volume regulation accompanied by a relatively minor contribution through Ca^2+-activated Cl^− currents. The combination of enhanced ENaC currents and transient Ca^2+-activated Cl^− currents in CF result in an inadequate hydration of the ASL and reduction of mucociliary clearance. Since INO-E2 reduces Na^+ transport through ENaC, we hypothesized that INO-E2 would have a functional effect, similar to amiloride, and inhibit fluid absorption. To test this hypothesis, we exposed well differentiated monolayer cultures of CF nasal epithelia to an apically applied buffer containing INO-E2 and a known concentration of the non-permeable molecule Blue Dextran (BD). The resulting reduction in the ability of these monolayers to concentrate BD was taken as a functional indicator of INO-E2's involvement in the inhibition of ENaC.
HEPES Modified Ringer's Buffer (HMRB) was used for these assays. HMRB was sterilized by positive pressure filtration through a 0.2 um syringe tip filter (Gelman acrodisc). The BD stock solution was aseptically prepared with sterile buffer (2 mg BD/ml buffer). Compounds to be tested were solubilized in sterile HMRB containing 1 μM BD (final concentration of vehicle is 0.1% (1:1, DMSO+DMSO containing 5% pluronic-F127). […] A standard concentration curve was obtained by determining the optical densities of a serial dilution of 10 μM Blue Dextran in HMRB placed in a Falcon 3027 96-well plate. The optical density of BD in the solution was obtained by analysis at 660 nm in a Packard Spectracount. Standards and samples were analyzed on the same plate. 50 μl volumes were used for all samples and standards. The [BD] of the samples was determined by extrapolation from the standard curve using the Packard I-Smart software. The increase in [BD] from the starting value of 1 μM was taken to be an indication of the magnitude of volume absorption occurring across the monolayer. The rate of absorption was calculated by dividing the change in volume by the duration of the experiment. This value was normalized to a surface area of 1 cm^2, to give μl·cm^2−1·hr^−1. To address evaporative loss, which would appear in the data as artificially high absorptive rates, dummy membranes were constructed by attaching a thin Sylgard sheet to snapwells/transwells with silicon sealant. These dummy membranes were used in parallel with the epithelial monolayers to assess evaporative loss for each experiment.

[2] = system: Ca2+ activated Cl- secretion; assay: ATP-stimulated Cl- secretion after amiloride in Ussing chambers; type: cell-based, human; details: repeated exposure 1-2.5 μM over 96 hours, then amiloride, then apical ATP
Experimental: FIG. 3 is a graph showing the effect of repeated exposure to INO-E2 on physiological parameters in CFHNE. 2.5 μM INO-E2 was added every 24 hrs for 4 days. Effects on Isc in CFHNE, passage 2 are depicted. Every 24 hrs medium in the basolateral compartment was exchanged with fresh medium containing 2.5 μM INO-E2. On the 4th day the monolayers were mounted in Ussing chambers and basal Isc, conductance and resistance measured. After a stable baseline was reached, amiloride was added to determine the amiloride-inhibitable-Isc. Under these conditions, subsequent apical addition of the Ca^2+-mobilizing agent, ATP, allows Cl^− secretion to be examined in isolation.
The therapeutic potential of INO-E2 was investigated by using protocols that model in vivo treatments. In this experiment the effects of repeated exposure to a low dose of INO-E2 (2.5 μM) on basal Isc and responsiveness to calcium-mobilizing agonists (ATP) in human nasal CF epithelia (CFHNE) was tested. […] T here was no apparent difference in responses to compound added to the apical or basolateral compartment. This series of experiments provides information that useful for deriving the optimal therapeutic dose and delivery schedule for in vivo tests.

With `CCCCCCCCOC1C(OC(=O)CCC)C(OP(=O)(OCOC(=O)CC)OCOC(=O)CC)C(OP(=O)(OCOC(=O)CC)OCOC(=O)CC)C(OP(=O)(OCOC(=O)CC)OCOC(=O)CC)C1OP(=O)(OCOC(=O)CC)OCOC(=O)CC` (centres unmarked) [INO-E2, 2-O-butyryl-1-O-octyl-myo-inositol 3,4,5,6-tetrakisphosphate octakis (propionoxymethyl) ester] the “toxicity on repeated exposure (deterioration of tight junctions)” value (CFHNE monolayers; 1-2.5 μM repeatedly over 96 hours) was “no indication of toxicity; also recorded: No evidence of toxicity”, the “toxic effects as evaluated by tight junction integrity” value (CFHNE monolayers; 2 hr exposure 24 hrs before, up to highest concentration 200 μM) was “no apparent toxic effects” and the “integrity of the monolayers at high concentration” value (CFHNE monolayers; concentrations in 100 fold excess of the acute EC50) was “no decrement in the integrity of the monolayers”. For the same molecule, the monolayer resistance (CFHNE monolayers; measured shortly after mounting, highest concentration 200 μM) was “increased”, the “time to appearance of Cl- currents after addition” value ([1]; 10 μM, CFHNE cell, perforated patch) was 5 to 15 min and the “increase in chloride current” value ([1]; 5 and 10 μM, other perforated patch recordings, data not shown) was “low to intermediate increase”. The “change of potency on fluid absorption with repeat administration” value (human CF nasal epithelia; 2 hours each day for 8 days at 0.1 μM or 1 μM, n=6) was “enhancement of compound potency”, the “potency compared with amiloride in fluid secretion assay” value (human CF nasal epithelia; comparison 100 μM amiloride) was “as potent as amiloride” and the “duration of effects compared with amiloride” value (human CF nasal epithelia; conditions that model therapeutic exposure times) was “longer-lasting”. The “duration of effect on fluid secretion following a brief (pulsed) exposure” value (human CF nasal epithelia; pulsed exposure, FIG. 17) was “prolonged effects” and the “response to ATP (Ca2+ activated Cl- secretion) in treated monolayers” value [2] was “augments subsequent stimulation of Ca^2+ activated Cl^− secretion; also recorded: elevated”.
